Tests used:
[1] = molecular target: T1, CK1α (Homo sapiens, UniProt P48729+Q96SW2); assay: Western blot, degradation of substrate protein in hPBMCs; type: cell-based
T1 construct: effects of the compounds of the present disclosure on the expression of target proteins in cells; endogenous in cells; host or cells: human PBMCs (Milecell Biotechnologies)

[2] = molecular target: T2, IKZF1 (Homo sapiens, UniProt Q13422+Q96SW2); assay: as above; type: cell-based
T2 construct: effects of the compounds of the present disclosure on the expression of target proteins in cells; endogenous in cells; host or cells: human PBMCs (Milecell Biotechnologies)
T2 sequence (Q13422 whole entry): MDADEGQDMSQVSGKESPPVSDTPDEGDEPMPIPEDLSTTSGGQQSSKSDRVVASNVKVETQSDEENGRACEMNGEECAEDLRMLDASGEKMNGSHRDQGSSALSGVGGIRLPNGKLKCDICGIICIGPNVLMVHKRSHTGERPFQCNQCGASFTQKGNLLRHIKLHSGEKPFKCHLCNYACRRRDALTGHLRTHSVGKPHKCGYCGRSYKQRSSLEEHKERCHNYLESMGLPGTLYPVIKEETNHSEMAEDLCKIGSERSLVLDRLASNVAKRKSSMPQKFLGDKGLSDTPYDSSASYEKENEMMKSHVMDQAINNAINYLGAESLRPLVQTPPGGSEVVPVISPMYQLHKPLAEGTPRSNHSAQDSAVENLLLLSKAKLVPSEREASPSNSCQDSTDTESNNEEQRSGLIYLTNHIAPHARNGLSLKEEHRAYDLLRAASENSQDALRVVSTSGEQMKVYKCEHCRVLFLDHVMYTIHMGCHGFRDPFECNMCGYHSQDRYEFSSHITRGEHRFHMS
T2 sequence (Q96SW2 whole entry): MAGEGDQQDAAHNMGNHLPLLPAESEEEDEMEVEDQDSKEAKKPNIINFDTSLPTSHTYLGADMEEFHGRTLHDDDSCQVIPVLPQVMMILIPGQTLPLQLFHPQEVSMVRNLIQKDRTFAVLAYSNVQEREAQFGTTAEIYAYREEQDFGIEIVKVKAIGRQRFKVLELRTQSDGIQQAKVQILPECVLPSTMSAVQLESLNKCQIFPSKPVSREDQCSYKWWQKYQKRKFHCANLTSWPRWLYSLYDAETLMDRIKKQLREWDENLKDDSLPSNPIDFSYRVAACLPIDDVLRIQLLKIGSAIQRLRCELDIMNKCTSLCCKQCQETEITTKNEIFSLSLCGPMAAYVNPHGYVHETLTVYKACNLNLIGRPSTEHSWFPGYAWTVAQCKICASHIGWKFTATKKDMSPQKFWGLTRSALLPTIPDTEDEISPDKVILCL
T2 sequence (Q16531 whole entry partner): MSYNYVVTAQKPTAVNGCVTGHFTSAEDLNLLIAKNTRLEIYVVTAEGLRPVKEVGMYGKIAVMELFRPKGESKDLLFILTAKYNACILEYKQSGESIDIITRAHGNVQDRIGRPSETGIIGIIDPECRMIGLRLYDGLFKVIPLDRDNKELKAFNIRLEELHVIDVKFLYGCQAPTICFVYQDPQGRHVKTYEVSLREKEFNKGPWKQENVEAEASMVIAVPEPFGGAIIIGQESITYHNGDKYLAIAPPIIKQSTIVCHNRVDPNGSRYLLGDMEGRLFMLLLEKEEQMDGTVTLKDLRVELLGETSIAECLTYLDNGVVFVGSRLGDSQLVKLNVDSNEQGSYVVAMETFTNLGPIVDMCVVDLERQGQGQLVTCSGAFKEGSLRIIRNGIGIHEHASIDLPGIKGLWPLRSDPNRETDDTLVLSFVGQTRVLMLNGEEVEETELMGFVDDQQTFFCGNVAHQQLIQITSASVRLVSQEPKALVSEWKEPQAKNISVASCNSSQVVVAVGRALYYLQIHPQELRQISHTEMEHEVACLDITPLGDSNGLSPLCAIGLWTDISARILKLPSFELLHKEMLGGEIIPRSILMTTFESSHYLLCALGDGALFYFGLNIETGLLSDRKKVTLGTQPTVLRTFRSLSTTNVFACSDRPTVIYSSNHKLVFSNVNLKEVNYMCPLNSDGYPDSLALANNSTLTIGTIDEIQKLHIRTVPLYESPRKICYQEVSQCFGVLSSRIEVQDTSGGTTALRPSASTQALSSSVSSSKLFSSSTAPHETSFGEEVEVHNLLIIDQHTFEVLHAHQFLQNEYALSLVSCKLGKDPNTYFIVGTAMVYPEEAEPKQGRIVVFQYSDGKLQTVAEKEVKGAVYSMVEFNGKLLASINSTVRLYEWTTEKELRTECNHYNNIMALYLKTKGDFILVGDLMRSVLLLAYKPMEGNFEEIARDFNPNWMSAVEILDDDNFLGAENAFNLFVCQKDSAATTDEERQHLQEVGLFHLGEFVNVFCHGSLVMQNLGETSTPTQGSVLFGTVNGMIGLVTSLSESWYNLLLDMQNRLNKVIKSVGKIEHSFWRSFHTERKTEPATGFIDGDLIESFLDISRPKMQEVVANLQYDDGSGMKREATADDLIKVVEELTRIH

[3] = molecular target: T3, IKZF2 (Homo sapiens, UniProt Q96SW2+Q9UKS7); assay: as above; type: cell-based
T3 construct: effects of the compounds of the present disclosure on the expression of target proteins in cells; endogenous in cells; host or cells: human PBMCs (Milecell Biotechnologies)
T3 sequence (Q9UKS7 whole entry): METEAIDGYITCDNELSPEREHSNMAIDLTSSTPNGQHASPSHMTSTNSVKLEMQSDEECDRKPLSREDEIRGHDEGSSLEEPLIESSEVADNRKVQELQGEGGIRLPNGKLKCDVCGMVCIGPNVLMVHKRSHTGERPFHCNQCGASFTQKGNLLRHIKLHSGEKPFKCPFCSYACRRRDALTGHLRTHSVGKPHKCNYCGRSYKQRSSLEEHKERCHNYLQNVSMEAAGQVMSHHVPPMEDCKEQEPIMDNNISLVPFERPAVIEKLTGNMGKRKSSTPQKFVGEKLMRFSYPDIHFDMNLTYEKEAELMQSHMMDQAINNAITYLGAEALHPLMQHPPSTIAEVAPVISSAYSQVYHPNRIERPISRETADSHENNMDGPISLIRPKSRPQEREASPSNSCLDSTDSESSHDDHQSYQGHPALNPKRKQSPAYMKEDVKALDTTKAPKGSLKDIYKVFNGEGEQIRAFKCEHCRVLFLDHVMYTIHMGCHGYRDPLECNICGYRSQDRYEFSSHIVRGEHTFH
T3 sequence (Q96SW2 whole entry): as the sequence (Q96SW2 whole entry) above
T3 sequence (Q16531 whole entry partner): as the sequence (Q16531 whole entry partner) above

[4] = molecular target: T4, IKZF3 (Homo sapiens, UniProt Q96SW2+Q9UKT9); assay: as above; type: cell-based
T4 construct: effects of the compounds of the present disclosure on the expression of target proteins in cells; endogenous in cells; host or cells: human PBMCs (Milecell Biotechnologies)
T4 sequence (Q9UKT9 whole entry): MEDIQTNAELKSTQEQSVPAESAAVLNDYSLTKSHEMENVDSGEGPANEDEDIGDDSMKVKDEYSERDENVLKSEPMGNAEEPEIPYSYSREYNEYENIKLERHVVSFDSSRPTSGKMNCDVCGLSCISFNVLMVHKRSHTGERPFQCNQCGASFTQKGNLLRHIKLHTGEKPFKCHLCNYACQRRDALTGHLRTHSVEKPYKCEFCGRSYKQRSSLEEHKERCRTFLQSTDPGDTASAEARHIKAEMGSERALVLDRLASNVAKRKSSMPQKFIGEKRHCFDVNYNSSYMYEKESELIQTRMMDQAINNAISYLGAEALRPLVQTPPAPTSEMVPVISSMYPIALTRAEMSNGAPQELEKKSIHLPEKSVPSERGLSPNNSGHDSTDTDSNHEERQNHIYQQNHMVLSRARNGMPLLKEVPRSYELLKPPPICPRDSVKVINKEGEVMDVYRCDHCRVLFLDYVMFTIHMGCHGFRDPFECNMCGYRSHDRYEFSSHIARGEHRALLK
T4 sequence (Q96SW2 whole entry): as the sequence (Q96SW2 whole entry) above
T4 sequence (Q16531 whole entry partner): as the sequence (Q16531 whole entry partner) above

[5] = molecular target: T5, WEE1 (Homo sapiens, UniProt P30291+Q96SW2); assay: as above; type: cell-based
T5 construct: effects of the compounds of the present disclosure on the expression of target proteins in cells; endogenous in cells; host or cells: human PBMCs (Milecell Biotechnologies)
T5 sequence (P30291 whole entry): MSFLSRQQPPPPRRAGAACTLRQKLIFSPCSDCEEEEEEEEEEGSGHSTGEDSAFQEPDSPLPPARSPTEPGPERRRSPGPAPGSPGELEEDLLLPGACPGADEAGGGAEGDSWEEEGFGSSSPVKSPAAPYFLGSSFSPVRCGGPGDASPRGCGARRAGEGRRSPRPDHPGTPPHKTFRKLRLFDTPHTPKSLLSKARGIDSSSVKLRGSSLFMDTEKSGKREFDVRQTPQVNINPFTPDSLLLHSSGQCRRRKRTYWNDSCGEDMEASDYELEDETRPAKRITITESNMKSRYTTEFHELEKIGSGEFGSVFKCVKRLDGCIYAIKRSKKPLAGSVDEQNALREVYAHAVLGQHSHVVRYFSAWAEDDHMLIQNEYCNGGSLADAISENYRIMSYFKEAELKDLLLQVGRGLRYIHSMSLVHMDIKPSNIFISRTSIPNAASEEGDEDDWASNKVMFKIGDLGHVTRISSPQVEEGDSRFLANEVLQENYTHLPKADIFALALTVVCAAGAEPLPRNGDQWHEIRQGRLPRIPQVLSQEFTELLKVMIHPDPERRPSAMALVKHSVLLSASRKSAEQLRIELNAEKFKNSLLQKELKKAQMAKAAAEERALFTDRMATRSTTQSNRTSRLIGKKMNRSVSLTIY
T5 sequence (Q96SW2 whole entry): as the sequence (Q96SW2 whole entry) above
T5 sequence (Q16531 whole entry partner): as the sequence (Q16531 whole entry partner) above

[6] = tested on: GSPT1; assay: as above; type: cell-based, Human
[7] = molecular target: T6, human Cereblon WT GST-tagged protein (Homo sapiens, UniProt Q96SW2); assay: CRBN-binding affinity, HTRF (CEREBLON BINDING kit); conditions: for inhibition at 0.5 µM: read-out: Inhibition Rate at 0.5 µM (%); for inhibition at 2 µM: read-out: Inhibition Rate at 2 µM (%)
T6 construct: purchased CISBIO 64BDCRBNPEH
T6 sequence (Q96SW2 whole entry): as the sequence (Q96SW2 whole entry) above

[8] = 24 hours treatment, compounds at 50 nM and 500 nM (concentration behind the class not stated)
[9] = Western blot, 24 hours of compound treatment, compounds tested at 50 nM and 500 nM (concentration for the table not stated)

T1 sequence (P48729 whole entry): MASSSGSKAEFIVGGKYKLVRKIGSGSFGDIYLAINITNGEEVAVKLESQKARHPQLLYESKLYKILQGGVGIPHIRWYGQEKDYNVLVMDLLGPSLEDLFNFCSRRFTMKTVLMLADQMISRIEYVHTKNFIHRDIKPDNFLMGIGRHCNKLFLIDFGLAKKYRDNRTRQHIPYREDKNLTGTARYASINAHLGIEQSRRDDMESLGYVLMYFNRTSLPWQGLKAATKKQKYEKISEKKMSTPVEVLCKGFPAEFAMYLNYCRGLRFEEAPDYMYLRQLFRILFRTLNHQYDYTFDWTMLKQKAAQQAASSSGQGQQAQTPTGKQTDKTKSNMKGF
T1 sequence (Q96SW2 whole entry): as the sequence (Q96SW2 whole entry) above
T1 sequence (Q16531 whole entry partner): as the sequence (Q16531 whole entry partner) above

| Compound | inhibition at 0.5 µM [7] | inhibition at 2 µM [7] | CK1α substrate protein remaining % [1, 8] | IKZF 1 substrate protein remaining % [2, 8] | IKZF2 substrate protein remaining % [3, 8] | IKZF3 substrate protein remaining % [4, 8] | Wee1 substrate protein remaining % [5, 8] | GSPT1 substrate protein remaining % [6, 8] | CK1α substrate protein remaining % [1, 9] | IKZF 1 substrate protein remaining % [2, 9] | IKZF2 substrate protein remaining % [3, 9] | IKZF3 substrate protein remaining % [4, 9] | Wee1 substrate protein remaining % [5, 9] | GSPT1 substrate protein remaining % [6, 9] |
| --- | --- | --- | --- | --- | --- | --- | --- | --- | --- | --- | --- | --- | --- | --- |
| O=C1CCC(N2Cc3c(CN4CCN(c5nc(N6CCOCC6)c6sccc6n5)CC4)cccc3C2=S)C(=O)N1 (stereo not drawn) [GT-09033, 3-(4-((4-(4-morpholinothieno[3,2-d]pyrimidin-2-yl)piperazin-1-yl)methyl)-1-thioxoisoindolin-2-yl)piperidine-2,6-dione] | 60 to 80% | 80 to 100% | B (80%< substrate protein remaining %≤ 100%) | B (80%< substrate protein remaining %≤ 100%) | B (80%< substrate protein remaining %≤ 100%) | B (80%< substrate protein remaining %≤ 100%) | A (0% ≤ substrate protein remaining % ≤ 80%) | B (80%< substrate protein remaining %≤ 100%) |  |  |  |  |  |  |
| O=C1CCC(N2Cc3cc(CN4CCN(c5ccccn5)CC4)ccc3C2=S)C(=O)N1 (stereo not drawn) [GT-09216, 3-(5-((4-(pyridin-2-yl)piperazin-1-yl)methyl)-1-thioxoisoindolin-2-yl)piperidine-2,6-dione] | 60 to 80% | 80 to 100% |  |  |  |  |  |  | B (80%< substrate protein remaining %≤ 100%) | B (80%< substrate protein remaining %≤ 100%) | B (80%< substrate protein remaining %≤ 100%) | B (80%< substrate protein remaining %≤ 100%) | B (80%< substrate protein remaining %≤ 100%) | A (0% ≤ substrate protein remaining % ≤ 80%) |
| O=C1CCC(N2Cc3cc(CN4CCN(c5cc(Cl)ccn5)CC4)ccc3C2=S)C(=O)N1 (stereo not drawn) [GT-09218, 3-(5-((4-(4-chloropyridin-2-yl)piperazin-1-yl)methyl)-1-thioxoisoindolin-2-yl)piperidine-2,6-dione] | 60 to 80% | 80 to 100% |  |  |  |  |  |  | B (80%< substrate protein remaining %≤ 100%) | B (80%< substrate protein remaining %≤ 100%) | B (80%< substrate protein remaining %≤ 100%) | B (80%< substrate protein remaining %≤ 100%) | B (80%< substrate protein remaining %≤ 100%) | A (0% ≤ substrate protein remaining % ≤ 80%) |
| O=C1CCC(N2Cc3cc(CN4CCN(c5cccc(F)n5)CC4)ccc3C2=S)C(=O)N1 (stereo not drawn) [GT-09221, 3-(5-((4-(6-fluoropyridin-2-yl)piperazin-1-yl)methyl)-1-thioxoisoindolin-2-yl)piperidine-2,6-dione] | 80 to 100% | 80 to 100% |  |  |  |  |  |  | B (80%< substrate protein remaining %≤ 100%) | A (0% ≤ substrate protein remaining % ≤ 80%) | B (80%< substrate protein remaining %≤ 100%) | B (80%< substrate protein remaining %≤ 100%) | A (0% ≤ substrate protein remaining % ≤ 80%) | B (80%< substrate protein remaining %≤ 100%) |
| O=C1CCC(N2Cc3cc(CN4CCN(c5ncccc5C(F)(F)F)CC4)ccc3C2=S)C(=O)N1 (stereo not drawn) [GT-09223, 3-(1-thioxo-5-((4-(3-(trifluoromethyl)pyridin-2-yl)piperazin-1-yl)methyl)isoindolin-2-yl)piperidine-2,6-dione] | 60 to 80% | 80 to 100% |  |  |  |  |  |  | A (0% ≤ substrate protein remaining % ≤ 80%) | B (80%< substrate protein remaining %≤ 100%) | B (80%< substrate protein remaining %≤ 100%) | B (80%< substrate protein remaining %≤ 100%) | A (0% ≤ substrate protein remaining % ≤ 80%) | B (80%< substrate protein remaining %≤ 100%) |
| O=C1CCC(N2Cc3cc(CN4CCN(c5ccc(C(F)(F)F)cn5)CC4)ccc3C2=S)C(=O)N1 (stereo not drawn) [GT-09225, 3-(1-thioxo-5-((4-(5-(trifluoromethyl)pyridin-2-yl)piperazin-1-yl)methyl)isoindolin-2-yl)piperidine-2,6-dione] | 60 to 80% | 80 to 100% |  |  |  |  |  |  | A (0% ≤ substrate protein remaining % ≤ 80%) | B (80%< substrate protein remaining %≤ 100%) | B (80%< substrate protein remaining %≤ 100%) | A (0% ≤ substrate protein remaining % ≤ 80%) | B (80%< substrate protein remaining %≤ 100%) | A (0% ≤ substrate protein remaining % ≤ 80%) |
| O=C1CCC(N2Cc3cc(CN4CCN(c5ncc(C(F)(F)F)cc5Cl)CC4)ccc3C2=S)C(=O)N1 (stereo not drawn) [GT-09228, 3-(5-((4-(3-chloro-5-(trifluoromethyl)pyridin-2-yl)piperazin-1-yl)methyl)-1-thioxoisoindolin-2-yl)piperidine-2,6-dione] | 40 to 53% | 80 to 100% |  |  |  |  |  |  | A (0% ≤ substrate protein remaining % ≤ 80%) | B (80%< substrate protein remaining %≤ 100%) | B (80%< substrate protein remaining %≤ 100%) | B (80%< substrate protein remaining %≤ 100%) | B (80%< substrate protein remaining %≤ 100%) | B (80%< substrate protein remaining %≤ 100%) |
| O=C1CCC(N2Cc3cc(CN4CCN(c5ccc(Cl)nc5)CC4)ccc3C2=S)C(=O)N1 (stereo not drawn) [GT-09230, 3-(5-((4-(6-chloropyridin-3-yl)piperazin-1-yl)methyl)-1-thioxoisoindolin-2-yl)piperidine-2,6-dione] | 60 to 80% | 80 to 100% |  |  |  |  |  |  | A (0% ≤ substrate protein remaining % ≤ 80%) | B (80%< substrate protein remaining %≤ 100%) | B (80%< substrate protein remaining %≤ 100%) | B (80%< substrate protein remaining %≤ 100%) | B (80%< substrate protein remaining %≤ 100%) | A (0% ≤ substrate protein remaining % ≤ 80%) |

Further lines, with some results ahead:

| inhibition at 0.5 µM [7] | inhibition at 2 µM [7] | Compound | CK1α substrate protein remaining % [1, 8] | IKZF 1 substrate protein remaining % [2, 8] | IKZF2 substrate protein remaining % [3, 8] | IKZF3 substrate protein remaining % [4, 8] | Wee1 substrate protein remaining % [5, 8] | GSPT1 substrate protein remaining % [6, 8] | CK1α substrate protein remaining % [1, 9] | IKZF 1 substrate protein remaining % [2, 9] | IKZF2 substrate protein remaining % [3, 9] | IKZF3 substrate protein remaining % [4, 9] | Wee1 substrate protein remaining % [5, 9] | GSPT1 substrate protein remaining % [6, 9] |
| --- | --- | --- | --- | --- | --- | --- | --- | --- | --- | --- | --- | --- | --- | --- |
| 60 to 80% | 80 to 100% | O=C1CCC(N2Cc3cc(CN4CCN(c5ncccc5Cl)CC4)ccc3C2=S)C(=O)N1 (stereo not drawn) [GT-09219, 3-(5-((4-(3-chloropyridin-2-yl)piperazin-1-yl)methyl)-1-thioxoisoindolin-2-yl)piperidine-2,6-dione] |  |  |  |  |  |  | B (80%< substrate protein remaining %≤ 100%) | B (80%< substrate protein remaining %≤ 100%) | A (0% ≤ substrate protein remaining % ≤ 80%) | B (80%< substrate protein remaining %≤ 100%) | B (80%< substrate protein remaining %≤ 100%) | A (0% ≤ substrate protein remaining % ≤ 80%) |
| 60 to 80% | 80 to 100% | O=C1CCC(N2Cc3cc(CN4CCN(c5ccc(F)cn5)CC4)ccc3C2=S)C(=O)N1 (stereo not drawn) [GT-09222, 3-(5-((4-(5-fluoropyridin-2-yl)piperazin-1-yl)methyl)-1-thioxoisoindolin-2-yl)piperidine-2,6-dione] |  |  |  |  |  |  | B (80%< substrate protein remaining %≤ 100%) | A (0% ≤ substrate protein remaining % ≤ 80%) | B (80%< substrate protein remaining %≤ 100%) | B (80%< substrate protein remaining %≤ 100%) | A (0% ≤ substrate protein remaining % ≤ 80%) | B (80%< substrate protein remaining %≤ 100%) |
| 60 to 80% | 80 to 100% | O=C1CCC(N2Cc3cc(CN4CCN(c5nccc(I)c5F)CC4)ccc3C2=S)C(=O)N1 (stereo not drawn) [GT-09227, 3-(5-((4-(3-fluoro-4-iodopyridin-2-yl)piperazin-1-yl)methyl)-1-thioxoisoindolin-2-yl)piperidine-2,6-dione] |  |  |  |  |  |  | A (0% ≤ substrate protein remaining % ≤ 80%) | B (80%< substrate protein remaining %≤ 100%) | B (80%< substrate protein remaining %≤ 100%) | B (80%< substrate protein remaining %≤ 100%) | B (80%< substrate protein remaining %≤ 100%) | A (0% ≤ substrate protein remaining % ≤ 80%) |
| 60 to 80% | 80 to 100% | O=C1CCC(N2Cc3cc(CN4CCN(c5c(Cl)ccnc5Cl)CC4)ccc3C2=S)C(=O)N1 (stereo not drawn) [GT-09232, 3-(5-((4-(2,4-dichloropyridin-3-yl)piperazin-1-yl)methyl)-1-thioxoisoindolin-2-yl)piperidine-2,6-dione] |  |  |  |  |  |  | A (0% ≤ substrate protein remaining % ≤ 80%) | A (0% ≤ substrate protein remaining % ≤ 80%) | A (0% ≤ substrate protein remaining % ≤ 80%) | A (0% ≤ substrate protein remaining % ≤ 80%) | A (0% ≤ substrate protein remaining % ≤ 80%) | A (0% ≤ substrate protein remaining % ≤ 80%) |
